# Laboratory results as given in patent US20100144626A1, “Treatment of Multi-Drug Resistant Bacterial Infections” (priority 2006, published 2010).
# Read-outs that look alike come from different tables or passages of the source.
# Legend:
# [1] = in vivo; cited from earlier work
# [2] = test system: Enterococcus faecalis (VRE) E8 VanA; experiment: MIC, agar dilution (BSAC guidelines); assay type: cell-based; conditions: E. faecalis (VRE) E8 VanA
# Experimental: (§1) In example experiments miconazole nitrate, was dissolved in methanol and econazole nitrate and clotrimazole were dissolved in DMSO and methanol respectively. Other solvents that may be used include caster oil, pyridine, DMSO and 0.9% saline. For IV administration agents may be solubilised in polyethoxylated caster oil, or cyclodextrins such as sulfobutylether7-βcyclodextrin or hydroxypropyl-β-cyclodextrin and lactic acid. Minimum inhibitory concentrations (MICs) of a range of clinical and control bacterial organisms were measured according to BSAC (British Society for Antimicrobial Chemotherapy) guidelines, described briefly as follows;
# (§2) Preparation of Agar Plates and Broths
# (§3) Stock solutions of each agent were prepared using the formula:
# (§4) Where P=μg of active compound per mg (μg/mg) • V=volume required (mL) • C=final concentration of solution (mg/L) • W=weight of agent (mg) to be dissolved in volume V (mL)
# (§5) Stock solutions were prepared at concentrations of 1000 mg/L and 100 mg/L. The appropriate amounts of each stock solution were added to separate Petri dishes give the following final concentrations (after the addition of 20 mL molten agar): 128, 64, 32, 16, 8, 4, 2, 1, 0.5, 0.25, 0.12, 0.06, 0.03, 0.015 mg/L.
# (§6) Volumes (20 mL) of cooled molten IST agar (oxoid) was added to each Petri dish and mixed by swirling.
# (§7) After drying, the plates were stored at 4° C. and protected from light. Plates were used on the day of preparation.
# (§8) The test organisms were grown overnight in 5 mL IST broth. Using a dilution in 0.9% saline of 1:500 for Gram-negative organisms and 1:100 for Gram-positive organisms, the appropriate agar plates were inoculated using a multipoint inoculator.
# (§9) Plates were incubated at 37° C. in air for 18-20 hours.
# (§10) The MIC is the minimum amount of an antibiotic at which there is no visible growth of bacteria. Tiny single colonies or faint hazes were not counted as growth.
# [3] = test system: Klebsiella pneumoniae ESBL 700603; experiment: MIC, agar dilution (BSAC guidelines); assay type: cell-based
# Experimental: as §1, §2, §3, §4, §5, §6, §7, §8, §9, §10
# [4] = test system: Escherichia coli NCTC 10418; experiment: MIC, agar dilution (BSAC guidelines); assay type: cell-based
# Experimental: as §1, §2, §3, §4, §5, §6, §7, §8, §9, §10
# [5] = test system: Pseudomonas aeruginosa NCTC 10662; experiment: MIC, agar dilution (BSAC guidelines); assay type: cell-based
# Experimental: as §1, §2, §3, §4, §5, §6, §7, §8, §9, §10
# [6] = test system: Acinetobacter Baumannii ATCC 19606; experiment: MIC, agar dilution (BSAC guidelines); assay type: cell-based
# Experimental: as §1, §2, §3, §4, §5, §6, §7, §8, §9, §10
# [7] = test system: Enterococcus faecium (VRE) E15 VanA ATCC 4147; experiment: MIC, agar dilution (BSAC guidelines); assay type: cell-based
# Experimental: as §1, §2, §3, §4, §5, §6, §7, §8, §9, §10
# [8] = test system: Enterococcus faecium (VRE) E19 UAA/522 VanB; experiment: MIC, agar dilution (BSAC guidelines); assay type: cell-based; conditions: E. faecium (VRE) E19 UAA/522 VanB
# Experimental: as §1, §2, §3, §4, §5, §6, §7, §8, §9, §10
# [9] = test system: VISA, strain USA/VISA 5827; experiment: MIC, agar dilution (BSAC guidelines); assay type: cell-based; conditions: Staphylococcus aureus
# Experimental: as §1, §2, §3, §4, §5, §6, §7, §8, §9, §10
# [10] = test system: Enterococcus faecium (VRE) VanR B145344C LFE; experiment: MIC, agar dilution (BSAC guidelines); assay type: cell-based; conditions: E. faecium (VRE) VanR B145344C LFE
# Experimental: as §1, §2, §3, §4, §5, §6, §7, §8, §9, §10
# [11] = test system: VISA, strain USA/VISA 5836; experiment: MIC, agar dilution (BSAC guidelines); assay type: cell-based; conditions: Staphylococcus aureus
# Experimental: as §1, §2, §3, §4, §5, §6, §7, §8, §9, §10
# [12] = test system: VISA, strain VISA 3900 UK; experiment: MIC, agar dilution (BSAC guidelines); assay type: cell-based; conditions: Staphylococcus aureus
# Experimental: as §1, §2, §3, §4, §5, §6, §7, §8, §9, §10
# [13] = test system: Staphylococcus epidermidis ATCC 1228; experiment: MIC, agar dilution (BSAC guidelines); assay type: cell-based
# Experimental: as §1, §2, §3, §4, §5, §6, §7, §8, §9, §10
# [14] = test system: Enterococcus gallinarum (VRE) E1 NCTC 12359 VanC1; experiment: MIC, agar dilution (BSAC guidelines); assay type: cell-based
# Experimental: as §1, §2, §3, §4, §5, §6, §7, §8, §9, §10
# [15] = test system: Enterococcus faecium (VRE) NCTC 7171; experiment: MIC, agar dilution (BSAC guidelines); assay type: cell-based
# Experimental: as §1, §2, §3, §4, §5, §6, §7, §8, §9, §10
# [16] = test system: strains of Staphylococci and Enterococci with reduced susceptibility to vancomycin; experiment: Growth inhibition, summary of MIC testing; assay type: cell-based; conditions: summary in words
# Experimental: as §1, §5, §8, §9, §10
# Gram-negative organisms = experiment: Growth inhibition, summary of MIC testing; assay type: cell-based; conditions: summary in words
# Experimental: as §1, §5, §8, §9, §10
# [17] = test system: clinical MRSA and VISA strains; experiment: MICs for clinical MRSA and VISA strains; assay type: cell-based; conditions: Staphylococcus aureus; range over strains; read-out: MICs for the clinical MRSA and VISA strains tested
# Experimental: as §1, §5
# The test organisms were grown overnight in 5 mL IST broth. Using a dilution in 0.9% saline of 1:500 for Gram-negative organisms and 1:100 for Gram-positive organisms, the appropriate agar plates were inoculated using a multipoint inoculator. […]
# as §10
# [18] = replicate 1, read-out: Minimum inhibitory concentration (MIC)
# [19] = replicate 2, read-out: Minimum inhibitory concentration (MIC)
# [20] = replicate 3, read-out: Minimum inhibitory concentration (MIC)
smiles,measurement,setting,value
"Clc1ccc(COC(Cn2ccnc2)c2ccc(Cl)cc2Cl)c(Cl)c1 (stereo not shown) [Miconazole, 1-[2-(2,4-dichlorophenyl)-2-[(2,4-dichlorophenyl)methoxy]ethyl]-1H-imidazole]","biological half life, first phase of triphasic elimination",[1],0.4 hours
same,"biological half life, second phase of triphasic elimination",[1],2.1 hours
same,"biological half life, third phase of triphasic elimination",[1],24.1 hours
same,MIC,[2]; [18],5 µg/mL
same,MIC,[2]; [19],> 6 µg/mL
same,MIC,[2]; [20],> 6 µg/mL
same,MIC,"[3]; ESBL700603, K. pneumoniae ESBL 700603, replicate 1, read-out: Minimum inhibitory concentration (MIC)",> 10 µg/mL
same,MIC,"[3]; ESBL700603, K. pneumoniae ESBL 700603, replicate 2, read-out: Minimum inhibitory concentration (MIC)",> 6 µg/mL
same,MIC,"[3]; ESBL700603, K. pneumoniae ESBL 700603, replicate 3, read-out: Minimum inhibitory concentration (MIC)",> 6 µg/mL
same,MIC,"[4]; NCTC10418, E. coli NCTC 10418, replicate 1, read-out: Minimum inhibitory concentration (MIC)",> 10 µg/mL
same,MIC,"[4]; NCTC10418, E. coli NCTC 10418, replicate 2, read-out: Minimum inhibitory concentration (MIC)",> 6 µg/mL
same,MIC,"[4]; NCTC10418, E. coli NCTC 10418, replicate 3, read-out: Minimum inhibitory concentration (MIC)",> 6 µg/mL
same,MIC,"[5]; NCTC10662, P. aeruginosa NCTC 10662, replicate 1, read-out: Minimum inhibitory concentration (MIC)",> 10 µg/mL
same,MIC,"[5]; NCTC10662, P. aeruginosa NCTC 10662, replicate 2, read-out: Minimum inhibitory concentration (MIC)",> 6 µg/mL
same,MIC,"[5]; NCTC10662, P. aeruginosa NCTC 10662, replicate 3, read-out: Minimum inhibitory concentration (MIC)",> 6 µg/mL
same,MIC,"[6]; ATCC19606, Acinetobacter Baumannii ATCC 19606, replicate 1, read-out: Minimum inhibitory concentration (MIC)",> 10 µg/mL
same,MIC,"[6]; ATCC19606, Acinetobacter Baumannii ATCC 19606, replicate 2, read-out: Minimum inhibitory concentration (MIC)",> 6 µg/mL
same,MIC,"[6]; ATCC19606, Acinetobacter Baumannii ATCC 19606, replicate 3, read-out: Minimum inhibitory concentration (MIC)",> 6 µg/mL
same,MIC,"[7]; E. faecium (VRE) E15 VanA ATCC 4147, replicate 1, read-out: Minimum inhibitory concentration (MIC)",1.5 µg/mL
same,MIC,"[7]; E. faecium (VRE) E15 VanA ATCC 4147, replicate 2, read-out: Minimum inhibitory concentration (MIC)",3 µg/mL
same,MIC,"[7]; E. faecium (VRE) E15 VanA ATCC 4147, replicate 3, read-out: Minimum inhibitory concentration (MIC)",3 µg/mL
same,MIC,[8]; [18],1 µg/mL
same,MIC,[8]; [19],2.5 µg/mL
same,MIC,[8]; [20],2.5 µg/mL
same,MIC,[9]; [18],1 µg/mL
same,MIC,[9]; [19],2 µg/mL
same,MIC,[9]; [20],1 µg/mL
same,MIC,[10]; [18],2.5 µg/mL
same,MIC,[10]; [19],3 µg/mL
same,MIC,[10]; [20],2.5 µg/mL
same,MIC,[11]; [18],1 µg/mL
same,MIC,[11]; [19],2.5 µg/mL
same,MIC,[11]; [20],2.5 µg/mL
same,MIC,[12]; [18],1 µg/mL
same,MIC,[12]; [19],1.5 µg/mL
same,MIC,[12]; [20],2 µg/mL
same,MIC,"[13]; ATCC1228, S. epidermidis ATCC 1228, replicate 1, read-out: Minimum inhibitory concentration (MIC)",2.5 µg/mL
same,MIC,"[13]; ATCC1228, S. epidermidis ATCC 1228, replicate 2, read-out: Minimum inhibitory concentration (MIC)",2 µg/mL
same,MIC,"[13]; ATCC1228, S. epidermidis ATCC 1228, replicate 3, read-out: Minimum inhibitory concentration (MIC)",2 µg/mL
same,MIC,"[14]; E. gallinarum (VRE) E1 NCTC 12359 VanC1, replicate 1, read-out: Minimum inhibitory concentration (MIC)",2 µg/mL
same,MIC,"[14]; E. gallinarum (VRE) E1 NCTC 12359 VanC1, replicate 2, read-out: Minimum inhibitory concentration (MIC)",3 µg/mL
same,MIC,"[14]; E. gallinarum (VRE) E1 NCTC 12359 VanC1, replicate 3, read-out: Minimum inhibitory concentration (MIC)",3.5 µg/mL
same,MIC,"[15]; E. faecium (VRE) NCTC 7171, replicate 1, read-out: Minimum inhibitory concentration (MIC)",3.5 µg/mL
same,MIC,"[15]; E. faecium (VRE) NCTC 7171, replicate 2, read-out: Minimum inhibitory concentration (MIC)",6 µg/mL
same,MIC,"[15]; E. faecium (VRE) NCTC 7171, replicate 3, read-out: Minimum inhibitory concentration (MIC)",5.5 µg/mL
same,activity against strains of Staphylococci and Enterococci with reduced susceptibility to vancomycin,[16],good activity
same,activity against strains of Staphylococci and Enterococci with reduced susceptibility to vancomycin,[16]; listed as miconazole,capable of inhibiting the growth
same,activity against Gram-negative organisms,Gram-negative organisms,no significant activity
same,MIC,[17],0.25 to 2 µg/mL
